Reference: patent US9428519B2, “Acylated derivative of homoharringtonine, preparation method therefor, and application thereof” (HANGZHOU BENSHENG PHARMACEUTICAL CO., LTD., priority 2011, dated 2016)
≈ marks a conversion by molar mass, not a printed value.

What was measured:
[1] = test system: H9 (acute lymphoblastic leukemia, ALL); assay: MTT growth inhibition of leukemia cells, 72 h; format: cell-based, human; conditions: MTT
Procedure, shortened: (§1)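 Each well received 6000 cells in serum-supplemented (10% FBS) 1640 medium plus compound at varied concentrations. After 72 h incubation at 37 °C, 5% CO2, viable cell concentration was determined by MTT and the 72 h IC50 derived.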

[2] = test system: Jurkat (acute lymphoblastic leukemia, ALL); assay: MTT growth inhibition of leukemia cells, 72 h; format: cell-based, human
Procedure, shortened: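 Growth inhibition of the Jurkat ALL line was measured by MTT after 72 hours of compound exposure at 37° C. under 5% CO2. Wells of a 96-well plate held 6000 cells in 1640 medium plus 10% fetal bovine serum; untreated controls defined 100% viability, and inhibitory concentrations were derived from percent viability.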

[3] = test system: K562/adr (drug-resistant, chronic myeloid leukemia, CML); assay: MTT growth inhibition of leukemia cells, 72 h; format: cell-based, human; conditions: MTT
Procedure, shortened: as §1

[4] = test system: Kasumi-1 (acute myeloid leukemia M2 type, AML-M2); assay: MTT growth inhibition of leukemia cells, 72 h; format: cell-based, human
Procedure, shortened: as §1

[5] = test system: NB4 (acute promyelocytic leukemia, AML); assay: MTT growth inhibition of leukemia cells, 72 h; format: cell-based, human; conditions: MTT
Procedure, shortened: as §1

[6] = test system: RPMI8226 (multiple myeloma); assay: MTT growth inhibition of multiple myeloma cells, 72 h; format: cell-based, human
Procedure, shortened: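 Growth inhibition read by MTT after 72 h compound exposure (37 °C, 5% CO2) of 6000 RPMI8226 cells per well in 1640 medium plus 10% fetal bovine serum. Viability expressed against untreated cells (100%), from which the 72 h IC50 was derived.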

A549 (human lung cancer) = assay: MTT growth inhibition of human solid tumor cells, 72 h; format: cell-based
Procedure, shortened: (§2)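 Viability by MTT relative to untreated cells (100%) after 72 h drug exposure; 4000 cells/well preincubated 24 h in 10% FBS DMEM.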

[7] = test system: Becap37 (human breast cancer cell); assay: as above; format: cell-based
Procedure, shortened: as §2

[8] = test system: CNE (nasopharyngeal carcinoma cell); assay: as above; format: cell-based; conditions: MTT
Procedure, shortened: as §2

[9] = test system: CaES-17 (esophageal cancer cell); assay: as above; format: cell-based
Procedure, shortened: as §2

[10] = test system: Hela (human cervical cancer cell); assay: as above; format: cell-based; conditions: MTT
Procedure, shortened: as §2

[11] = test system: Hep-2 (laryngeal carcinoma); assay: as above; format: cell-based
Procedure, shortened: as §2

[12] = test system: Huh7 (human liver cancer cell); assay: as above; format: cell-based
Procedure, shortened: as §2

MG63 (osteosarcoma) = assay: as above; format: cell-based
Procedure, shortened: as §2

[13] = test system: MGC 803 (human gastric cancer cell); assay: as above; format: cell-based
Procedure, shortened: as §2

[14] = test system: PANC-1 (pancreatic cancer); assay: as above; format: cell-based
Procedure, shortened: as §2

PC-3 (prostate cancer) = assay: as above; format: cell-based; conditions: MTT
Procedure, shortened: as §2

[15] = test system: RKO (human colon adenocarcinoma cell); assay: as above; format: cell-based; conditions: MTT
Procedure, shortened: as §2

[16] = test system: SK-OV-3 (ovarian cancer cell); assay: as above; format: cell-based
Procedure, shortened: as §2

[17] = test system: U87 MG (malignant glioma cell); assay: as above; format: cell-based
Procedure, shortened: as §2

For `COC(=O)C[C@@](CCCC(C)(C)OC(=O)c1ccccc1)(OC(=O)c1ccccc1)C(=O)O[C@@H]1C(OC)=C[C@]23CCCN2CCc2cc4c(cc2[C@H]13)OCO4` [BS-HH-0732], the “IC50 H9” value [1] was 1.3 µg/mL (≈ 1.72 µM), the “IC90 H9” value [1] was 3.9 µg/mL (≈ 5.17 µM) and the “IC50 Jurkat” value [2] was 1.4 µg/mL (≈ 1.86 µM). For the same compound, the “IC90 Jurkat” value [2] was 6.4 µg/mL (≈ 8.49 µM), the “IC50 K562/adr” value [3] was 2.5 µg/mL (≈ 3.32 µM) and the “IC90 K562/adr” value [3] was 6.5 µg/mL (≈ 8.62 µM). For the same compound, the “IC50 Kasumi-1” value ([4]; MTT) was 1.35 µg/mL (≈ 1.79 µM), the “IC90 Kasumi-1” value ([4]; MTT) was 3.56 µg/mL (≈ 4.72 µM) and the “IC50 NB4” value [5] was 1.19 µg/mL (≈ 1.58 µM). The “IC90 NB4” value [5] was 2.47 µg/mL (≈ 3.28 µM), the “IC50 RPMI8226” value ([6]; MTT) was 1.15 µg/mL (≈ 1.53 µM) and the “IC90 RPMI8226” value ([6]; MTT) was 3.84 µg/mL (≈ 5.09 µM). The “IC50 A549” value (A549 (human lung cancer)) was 5.4 µg/mL (≈ 7.16 µM), the “IC90 A549” value (A549 (human lung cancer)) was over 16 µg/mL and the “IC50 Becap37” value [7] was 2.9 µg/mL (≈ 3.85 µM). For the same compound, the “IC90 Becap37” value [7] was 12.7 µg/mL (≈ 16.8 µM), the “IC50 CNE” value [8] was 3.91 µg/mL (≈ 5.19 µM) and the “IC90 CNE” value [8] was over 16 µg/mL. The “IC50 CaES-17” value [9] was 3.93 µg/mL (≈ 5.21 µM), the “IC90 CaES-17” value [9] was 16 µg/mL (≈ 21.2 µM) and the “IC50 Hela” value [10] was 2.61 µg/mL (≈ 3.46 µM). The “IC90 Hela” value [10] was 8.37 µg/mL (≈ 11.1 µM), the “IC50 Hep-2” value [11] was 3.46 µg/mL (≈ 4.59 µM) and the “IC90 Hep-2” value [11] was over 16 µg/mL. The “IC50 Huh7” value [12] was 4.8 µg/mL (≈ 6.37 µM), the “IC90 Huh7” value [12] was 14.5 µg/mL (≈ 19.2 µM) and the “IC50 MG 63” value (MG63 (osteosarcoma); MTT) was 1.34 µg/mL (≈ 1.78 µM). The “IC90 MG 63” value (MG63 (osteosarcoma); MTT) was 9.88 µg/mL (≈ 13.1 µM), the “IC50 MGC 803” value [13] was 2.7 µg/mL (≈ 3.58 µM) and the “IC90 MGC 803” value [13] was 9.92 µg/mL (≈ 13.2 µM). For the same compound, the “IC50 PANC-1” value ([14]; MTT) was 5.8 µg/mL (≈ 7.69 µM), the “IC90 PANC-1” value ([14]; MTT) was 16 µg/mL (≈ 21.2 µM) and the “IC50 PC-3” value (PC-3 (prostate cancer)) was 3.97 µg/mL (≈ 5.27 µM). The “IC90 PC-3” value (PC-3 (prostate cancer)) was 16 µg/mL (≈ 21.2 µM), the “IC50 RKO” value [15] was 1.4 µg/mL (≈ 1.86 µM) and the “IC90 RKO” value [15] was 5.24 µg/mL (≈ 6.95 µM). The “IC50 SK-OV-3” value ([16]; MTT) was 6.71 µg/mL (≈ 8.9 µM), the “IC90 SK-OV-3” value ([16]; MTT) was over 16 µg/mL and the “IC50 U87 MG” value [17] was 2 µg/mL (≈ 2.65 µM). For the same compound, the “IC90 U87 MG” value [17] was 8.54 µg/mL (≈ 11.3 µM).
For `COC(=O)C[C@](O)(CCCC(C)(C)O)C(=O)O[C@@H]1C(OC)=C[C@]23CCCN2CCc2cc4c(cc2[C@H]13)OCO4` [HHT, O-3-[(2R)-2,6-dihydroxy-2-(2′-methoxy-2′-oxoethyl)-6-methylheptanoyl]cephalotaxine, reference compound], the IC50 ([1]; Homo sapiens) was 0.02 µg/mL (≈ 0.0367 µM), the IC90 ([1]; Homo sapiens) was 0.046 µg/mL (≈ 0.0843 µM) and the IC50 ([2]; Homo sapiens, Jurkat) was 0.007 µg/mL (≈ 0.0128 µM). It also gave an IC90 ([2]; Homo sapiens, Jurkat) of at least 16 µg/mL, an IC50 ([3]; Homo sapiens, K562/Adr) of 0.035 µg/mL (≈ 0.0641 µM) and an IC90 ([3]; Homo sapiens, K562/Adr) of 0.98 µg/mL (≈ 1.8 µM). It also gave an IC50 ([4]; Homo sapiens, Kasumi 1, MTT) of 0.005 µg/mL (≈ 0.00916 µM), an IC90 ([4]; Homo sapiens, Kasumi 1, MTT) of 0.024 µg/mL (≈ 0.044 µM) and an IC50 ([5]; Homo sapiens) of 0.006 µg/mL (≈ 0.011 µM). It also gave an IC90 ([5]; Homo sapiens) of 0.012 µg/mL (≈ 0.022 µM), an IC50 ([6]; Homo sapiens, RPMI-8226, MTT) of 0.006 µg/mL (≈ 0.011 µM) and an IC90 ([6]; Homo sapiens, RPMI-8226, MTT) of 0.027 µg/mL (≈ 0.0495 µM). It also gave an IC50 (A549 (human lung cancer); Homo sapiens, A549) of 0.03 µg/mL (≈ 0.055 µM), an IC90 (A549 (human lung cancer); Homo sapiens, A549) of over 16 µg/mL and an IC50 ([7]; Homo sapiens) of 0.01 µg/mL (≈ 0.0183 µM). The IC90 ([7]; Homo sapiens) was 11.6 µg/mL (≈ 21.2 µM), the IC50 ([8]; Homo sapiens) was 0.038 µg/mL (≈ 0.0696 µM) and the IC90 ([8]; Homo sapiens) was over 16 µg/mL. For the same compound, the IC50 ([9]; Homo sapiens, CaEs17) was 0.037 µg/mL (≈ 0.0678 µM), the IC90 ([9]; Homo sapiens, CaEs17) was over 16 µg/mL and the IC50 ([10]; Homo sapiens, HeLa) was 0.019 µg/mL (≈ 0.0348 µM). The IC90 ([10]; Homo sapiens, HeLa) was 16 µg/mL (≈ 29.3 µM), the IC50 ([11]; Homo sapiens, HEp-2) was 0.014 µg/mL (≈ 0.0257 µM) and the IC90 ([11]; Homo sapiens, HEp-2) was over 16 µg/mL. For the same compound, the IC50 ([12]; Homo sapiens, Huh-7) was 0.004 µg/mL (≈ 0.00733 µM), the IC90 ([12]; Homo sapiens, Huh-7) was 0.049 µg/mL (≈ 0.0898 µM) and the IC50 (MG63 (osteosarcoma); Homo sapiens, MG-63, MTT) was 0.01 µg/mL (≈ 0.0183 µM). For the same compound, the IC90 (MG63 (osteosarcoma); Homo sapiens, MG-63, MTT) was 1.2 µg/mL (≈ 2.2 µM), the IC50 ([13]; Homo sapiens, MGC-803) was 0.016 µg/mL (≈ 0.0293 µM) and the IC90 ([13]; Homo sapiens, MGC-803) was 0.2 µg/mL (≈ 0.367 µM). The IC50 ([14]; Homo sapiens, PANC-1, MTT) was 0.035 µg/mL (≈ 0.0641 µM), the IC90 ([14]; Homo sapiens, PANC-1, MTT) was over 16 µg/mL and the IC50 (PC-3 (prostate cancer); Homo sapiens) was 0.08 µg/mL (≈ 0.147 µM). The IC90 (PC-3 (prostate cancer); Homo sapiens) was over 16 µg/mL, the IC50 ([15]; Homo sapiens) was 0.003 µg/mL (≈ 0.0055 µM) and the IC90 ([15]; Homo sapiens) was 0.009 µg/mL (≈ 0.0165 µM). For the same compound, the IC50 ([16]; Homo sapiens, SK-OV-3, MTT) was 0.09 µg/mL (≈ 0.165 µM), the IC90 ([16]; Homo sapiens, SK-OV-3, MTT) was over 16 µg/mL and the IC50 ([17]; Homo sapiens, U-87 MG) was 0.004 µg/mL (≈ 0.00733 µM). The IC90 ([17]; Homo sapiens, U-87 MG) was 0.018 µg/mL (≈ 0.033 µM).
